Consider two compounds from ChEMBL document CHEMBL3352242, “Structure-based design of substituted piperidines as a new class of highly efficacious oral direct Renin inhibitors” (ACS Med Chem Lett, 2014).

Each structure is given as a SMILES string. Bounds are passed on as bounds.

Data set [1] deals with Rattus norvegicus. The data set can be described thus: Reduction in mean arterial pressure in human renin and human angiotensinogen double transgenic rat at 3 mg/kg, po. The data set is classed as functional, Artery.
Data set [2] has as its system Rattus norvegicus. The data set can be described thus: Reduction in mean arterial pressure in human renin and human angiotensinogen double transgenic rat at 1 mg/kg, po. The format is functional, Artery.
For data set [3], the system named is Rattus norvegicus. The data set can be described thus: Reduction in mean arterial pressure in human renin and human angiotensinogen double transgenic rat at 100 mg/kg, po. The format is functional, Artery.
Data set [4] has as its system Rattus norvegicus. The data set can be described thus: Reduction in mean arterial pressure in human renin and human angiotensinogen double transgenic rat at 30 mg/kg, po. The data set is classed as functional, Artery.
A short description of data set [5]: Half life in Sprague-Dawley rat at 2 mg/kg, iv. The following applies: in vivo. More on the design: dose 2 mg/kg, route intravenous. The data set is classed as ADME, organism-based.
Data set [6] in a line: Oral bioavailability in Sprague-Dawley rat at 6 mg/kg. To be noted: in vivo. The data set is classed as ADME, organism-based.
Data set [7] deals with Rattus norvegicus. The data set can be described thus: Dose normalized AUC (infinity) in Sprague-Dawley rat at 6 mg/kg, po. The data set is classed as ADME, organism-based. Set-up: dose 6 mg/kg, route oral. The following applies: in vivo.
Data set [8] is described as follows: Clearance in Sprague-Dawley rat at 2 mg/kg, iv. More on the design: dose 2 mg/kg, route intravenous. To be noted: in vivo. The format is ADME, organism-based.
The nature of data set [9]: Volume of distribution at steady state in Sprague-Dawley rat at 2 mg/kg, iv. The data set is classed as ADME, organism-based. More on the design: dose 2 mg/kg, route intravenous. The following applies: in vivo, read-out: Vdss.
The subject of data set [10] is Rattus norvegicus. Put plainly: Dose normalized Cmax inSprague-Dawley rat at 6 mg/kg, po. The format is ADME, organism-based, Sprague-Dawley. More on the design: dose 6 mg/kg, route oral. The following applies: in vivo.
In data set [11] the test system is Rattus norvegicus. The data set can be described thus: Reduction in mean arterial pressure in human renin and human angiotensinogen double transgenic rat at 10 mg/kg, po. The data set is classed as functional, Artery.
Data set [12] concerns the target T1, Cathepsin E (Homo sapiens, UniProt P14091).
T1 sequence (P14091 whole entry): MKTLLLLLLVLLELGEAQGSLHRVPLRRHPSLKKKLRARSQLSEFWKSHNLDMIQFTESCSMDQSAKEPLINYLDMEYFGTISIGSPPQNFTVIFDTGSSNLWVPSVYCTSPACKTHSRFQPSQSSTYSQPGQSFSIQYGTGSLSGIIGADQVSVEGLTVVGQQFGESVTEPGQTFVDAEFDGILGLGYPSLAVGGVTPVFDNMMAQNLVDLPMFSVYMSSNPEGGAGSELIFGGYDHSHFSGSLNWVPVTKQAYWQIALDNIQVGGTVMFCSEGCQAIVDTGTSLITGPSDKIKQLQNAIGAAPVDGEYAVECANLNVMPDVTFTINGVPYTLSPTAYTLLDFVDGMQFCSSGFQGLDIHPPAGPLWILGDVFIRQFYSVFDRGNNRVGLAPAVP
The data set can be described thus: Inhibition of human recombinant human procathepsin E expressed in Escherichia coli using fluorescence-quenched Ac-E-D(EDANS)-KPILFFRLG-K(Dabcyl)-E-Amid substrate by fluorimetric assay.

The target in data set [13] is T2, Beta-secretase 2 (Homo sapiens, UniProt Q9Y5Z0).
T2 sequence (Q9Y5Z0 whole entry): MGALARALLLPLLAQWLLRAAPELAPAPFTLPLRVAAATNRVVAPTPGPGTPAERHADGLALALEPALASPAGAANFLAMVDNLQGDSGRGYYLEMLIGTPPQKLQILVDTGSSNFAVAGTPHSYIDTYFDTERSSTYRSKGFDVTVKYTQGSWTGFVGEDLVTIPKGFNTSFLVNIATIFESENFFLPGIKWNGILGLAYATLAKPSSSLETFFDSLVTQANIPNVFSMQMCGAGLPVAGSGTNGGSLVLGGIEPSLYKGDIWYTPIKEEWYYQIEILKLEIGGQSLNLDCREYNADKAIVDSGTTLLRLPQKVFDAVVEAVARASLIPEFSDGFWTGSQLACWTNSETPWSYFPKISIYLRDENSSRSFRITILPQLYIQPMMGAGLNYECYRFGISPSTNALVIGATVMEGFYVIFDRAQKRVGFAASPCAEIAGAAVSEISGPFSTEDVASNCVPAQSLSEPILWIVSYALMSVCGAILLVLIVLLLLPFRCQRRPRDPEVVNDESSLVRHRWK
The data set can be described thus: Inhibition of human recombinant BACE2 expressed in SF9 cells using fluorescence-quenched RE(EDANS)-EVNLDAEF-K(DABSYL)-R substrate by fluorimetric assay.

The subject of data set [14] is Salmonella typhimurium. The data set can be described thus: Mutagenicity in Salmonella typhimurium in presence of liver S9 fraction by Ames test. The format is toxicity, organism-based. The following applies: salmonella enterica subsp. enterica serovar typhimurium.
Data set [15] deals with Cytochrome P450 2D6 (Homo sapiens, UniProt P10635). Put plainly: Inhibition of CYP2D6 (unknown origin). The data set is classed as ADME.
The target of data set [16] is Sodium channel protein type 5 subunit alpha (Homo sapiens, UniProt Q14524). The data set can be described thus: Inhibition of Nav1.5 (unknown origin) by patch clamp assay.
Data set [17] has as its system Salmonella typhimurium. Put plainly: Mutagenicity in Salmonella typhimurium in absence of liver S9 fraction by Ames test. The format is toxicity, organism-based. The following applies: salmonella enterica subsp. enterica serovar typhimurium.
Data set [18] addresses T3, Gastricsin (Homo sapiens, UniProt P20142).
T3 sequence (P20142 whole entry): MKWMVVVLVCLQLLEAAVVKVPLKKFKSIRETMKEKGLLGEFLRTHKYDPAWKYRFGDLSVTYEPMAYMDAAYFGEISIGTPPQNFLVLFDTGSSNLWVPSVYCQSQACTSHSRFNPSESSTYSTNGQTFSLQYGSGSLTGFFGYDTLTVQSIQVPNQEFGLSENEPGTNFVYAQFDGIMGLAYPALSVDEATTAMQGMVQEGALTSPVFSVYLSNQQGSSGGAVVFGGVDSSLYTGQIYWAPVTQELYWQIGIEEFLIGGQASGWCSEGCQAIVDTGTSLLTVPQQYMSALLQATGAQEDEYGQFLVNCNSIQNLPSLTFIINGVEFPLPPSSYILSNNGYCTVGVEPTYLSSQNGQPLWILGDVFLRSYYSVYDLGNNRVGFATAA
Put plainly: Inhibition of human recombinant pepsinogen C expressed in Escherichia coli using fluorescence-quenched Dabcyl-E-R-Nle-F-L-S-F-P-EDANS substrate by fluorimetric assay.

For data set [19], the target named is Pepsin A (Homo sapiens, UniProt P0DJD9). The data set can be described thus: Inhibition of human recombinant pepsinogen A expressed in Escherichia coli using fluorescence-quenched Dabcyl-E-R-Nle-F-L-S-F-P-EDANS substrate by fluorimetric assay.
For data set [20], the target named is Beta-secretase 1 (Homo sapiens, UniProt P56817). Put plainly: Inhibition of human recombinant BACE1 expressed in SF9 cells using fluorescence-quenched RE(EDANS)-EVNLDAEF-K(DABSYL)-R substrate by fluorimetric assay.
Data set [21] in a line: Lipophilicity, logD of the compound at pH 6.8. The format is physicochemical. To be noted: buffer.
Data set [22] has as its target Cytochrome P450 3A4 (Homo sapiens, UniProt P08684). Put plainly: Inhibition of CYP3A4 (unknown origin). The data set is classed as ADME.
In data set [23] the target is Sodium channel protein type 2 subunit alpha (Homo sapiens, UniProt Q99250). The data set can be described thus: Inhibition of Nav1.2 (unknown origin) by patch clamp assay. For orientation: Patch clamp records ionic current or voltage across a cell membrane.
In data set [24] the target is Cathepsin D (Homo sapiens, UniProt P07339). The data set can be described thus: Inhibition of human recombinant procathepsin D expressed in SF9 cells using fluorescence-quenched Ac-E-D(EDANS)-KPILFFRLG-K(Dabcyl)-E-Amid substrate by fluorimetric assay.
Data set [25] in a line: Solubility in water at pH 1 to 9. The format is physicochemical.
The nature of data set [26]: Chemical stability at 80 degC. The format is physicochemical.
The target in data set [27] is Cytochrome P450 2C9 (Homo sapiens, UniProt P11712). Put plainly: Inhibition of CYP2C9 (unknown origin). The format is ADME.
Sequence of Cytochrome P450 2C9 (P11712 whole entry): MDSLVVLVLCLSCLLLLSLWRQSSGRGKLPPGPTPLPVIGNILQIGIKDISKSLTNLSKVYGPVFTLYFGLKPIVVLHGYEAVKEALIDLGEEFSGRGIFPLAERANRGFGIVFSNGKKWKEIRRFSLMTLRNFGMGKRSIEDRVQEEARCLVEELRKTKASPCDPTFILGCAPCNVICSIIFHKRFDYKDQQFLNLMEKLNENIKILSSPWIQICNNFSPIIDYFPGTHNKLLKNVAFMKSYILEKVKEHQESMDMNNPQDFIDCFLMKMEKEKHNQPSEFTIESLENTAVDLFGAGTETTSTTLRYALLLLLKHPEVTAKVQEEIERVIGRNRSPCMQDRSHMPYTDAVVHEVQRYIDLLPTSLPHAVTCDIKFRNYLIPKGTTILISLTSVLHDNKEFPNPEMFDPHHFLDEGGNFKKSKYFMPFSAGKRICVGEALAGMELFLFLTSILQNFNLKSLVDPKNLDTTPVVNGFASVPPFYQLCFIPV

Sequence of Cytochrome P450 3A4 (P08684 whole entry): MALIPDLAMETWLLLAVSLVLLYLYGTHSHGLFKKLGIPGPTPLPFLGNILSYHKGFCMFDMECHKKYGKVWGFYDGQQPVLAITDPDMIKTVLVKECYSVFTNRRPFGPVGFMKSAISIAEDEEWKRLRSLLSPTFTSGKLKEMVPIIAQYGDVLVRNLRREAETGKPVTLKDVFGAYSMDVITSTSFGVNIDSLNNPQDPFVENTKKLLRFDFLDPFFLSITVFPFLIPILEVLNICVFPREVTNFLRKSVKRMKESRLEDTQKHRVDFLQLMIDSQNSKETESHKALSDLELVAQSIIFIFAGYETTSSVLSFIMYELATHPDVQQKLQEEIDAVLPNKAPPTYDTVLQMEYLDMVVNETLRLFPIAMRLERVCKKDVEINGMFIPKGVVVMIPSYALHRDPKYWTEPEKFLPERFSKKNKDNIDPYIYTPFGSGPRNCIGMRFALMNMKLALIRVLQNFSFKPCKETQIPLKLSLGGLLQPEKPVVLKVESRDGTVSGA
Sequence of Cytochrome P450 2D6 (P10635 whole entry): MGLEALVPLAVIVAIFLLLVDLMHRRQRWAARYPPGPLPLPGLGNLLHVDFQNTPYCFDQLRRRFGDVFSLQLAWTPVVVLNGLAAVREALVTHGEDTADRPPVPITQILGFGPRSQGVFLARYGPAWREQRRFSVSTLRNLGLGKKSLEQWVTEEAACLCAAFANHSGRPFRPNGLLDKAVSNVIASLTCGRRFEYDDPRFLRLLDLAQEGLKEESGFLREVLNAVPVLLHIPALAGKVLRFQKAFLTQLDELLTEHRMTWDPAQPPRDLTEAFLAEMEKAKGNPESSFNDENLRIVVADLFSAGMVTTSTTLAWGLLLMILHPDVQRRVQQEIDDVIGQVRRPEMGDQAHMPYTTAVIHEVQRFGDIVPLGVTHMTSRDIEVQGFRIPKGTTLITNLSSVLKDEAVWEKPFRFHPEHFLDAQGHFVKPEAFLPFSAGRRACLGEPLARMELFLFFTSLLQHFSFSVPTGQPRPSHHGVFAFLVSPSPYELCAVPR
Sequence of Pepsin A (P0DJD9 whole entry): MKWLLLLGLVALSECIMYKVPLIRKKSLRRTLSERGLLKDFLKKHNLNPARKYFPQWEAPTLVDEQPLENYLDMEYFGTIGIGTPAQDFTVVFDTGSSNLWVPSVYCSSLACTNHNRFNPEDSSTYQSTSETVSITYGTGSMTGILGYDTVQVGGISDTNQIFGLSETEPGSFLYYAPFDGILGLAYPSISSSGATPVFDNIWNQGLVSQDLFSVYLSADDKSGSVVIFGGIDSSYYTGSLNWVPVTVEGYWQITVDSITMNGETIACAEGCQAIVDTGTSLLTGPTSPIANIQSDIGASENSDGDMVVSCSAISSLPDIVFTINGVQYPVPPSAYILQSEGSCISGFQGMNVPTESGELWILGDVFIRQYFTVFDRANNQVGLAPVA
Sequence of Sodium channel protein type 2 subunit alpha (Q99250 whole entry): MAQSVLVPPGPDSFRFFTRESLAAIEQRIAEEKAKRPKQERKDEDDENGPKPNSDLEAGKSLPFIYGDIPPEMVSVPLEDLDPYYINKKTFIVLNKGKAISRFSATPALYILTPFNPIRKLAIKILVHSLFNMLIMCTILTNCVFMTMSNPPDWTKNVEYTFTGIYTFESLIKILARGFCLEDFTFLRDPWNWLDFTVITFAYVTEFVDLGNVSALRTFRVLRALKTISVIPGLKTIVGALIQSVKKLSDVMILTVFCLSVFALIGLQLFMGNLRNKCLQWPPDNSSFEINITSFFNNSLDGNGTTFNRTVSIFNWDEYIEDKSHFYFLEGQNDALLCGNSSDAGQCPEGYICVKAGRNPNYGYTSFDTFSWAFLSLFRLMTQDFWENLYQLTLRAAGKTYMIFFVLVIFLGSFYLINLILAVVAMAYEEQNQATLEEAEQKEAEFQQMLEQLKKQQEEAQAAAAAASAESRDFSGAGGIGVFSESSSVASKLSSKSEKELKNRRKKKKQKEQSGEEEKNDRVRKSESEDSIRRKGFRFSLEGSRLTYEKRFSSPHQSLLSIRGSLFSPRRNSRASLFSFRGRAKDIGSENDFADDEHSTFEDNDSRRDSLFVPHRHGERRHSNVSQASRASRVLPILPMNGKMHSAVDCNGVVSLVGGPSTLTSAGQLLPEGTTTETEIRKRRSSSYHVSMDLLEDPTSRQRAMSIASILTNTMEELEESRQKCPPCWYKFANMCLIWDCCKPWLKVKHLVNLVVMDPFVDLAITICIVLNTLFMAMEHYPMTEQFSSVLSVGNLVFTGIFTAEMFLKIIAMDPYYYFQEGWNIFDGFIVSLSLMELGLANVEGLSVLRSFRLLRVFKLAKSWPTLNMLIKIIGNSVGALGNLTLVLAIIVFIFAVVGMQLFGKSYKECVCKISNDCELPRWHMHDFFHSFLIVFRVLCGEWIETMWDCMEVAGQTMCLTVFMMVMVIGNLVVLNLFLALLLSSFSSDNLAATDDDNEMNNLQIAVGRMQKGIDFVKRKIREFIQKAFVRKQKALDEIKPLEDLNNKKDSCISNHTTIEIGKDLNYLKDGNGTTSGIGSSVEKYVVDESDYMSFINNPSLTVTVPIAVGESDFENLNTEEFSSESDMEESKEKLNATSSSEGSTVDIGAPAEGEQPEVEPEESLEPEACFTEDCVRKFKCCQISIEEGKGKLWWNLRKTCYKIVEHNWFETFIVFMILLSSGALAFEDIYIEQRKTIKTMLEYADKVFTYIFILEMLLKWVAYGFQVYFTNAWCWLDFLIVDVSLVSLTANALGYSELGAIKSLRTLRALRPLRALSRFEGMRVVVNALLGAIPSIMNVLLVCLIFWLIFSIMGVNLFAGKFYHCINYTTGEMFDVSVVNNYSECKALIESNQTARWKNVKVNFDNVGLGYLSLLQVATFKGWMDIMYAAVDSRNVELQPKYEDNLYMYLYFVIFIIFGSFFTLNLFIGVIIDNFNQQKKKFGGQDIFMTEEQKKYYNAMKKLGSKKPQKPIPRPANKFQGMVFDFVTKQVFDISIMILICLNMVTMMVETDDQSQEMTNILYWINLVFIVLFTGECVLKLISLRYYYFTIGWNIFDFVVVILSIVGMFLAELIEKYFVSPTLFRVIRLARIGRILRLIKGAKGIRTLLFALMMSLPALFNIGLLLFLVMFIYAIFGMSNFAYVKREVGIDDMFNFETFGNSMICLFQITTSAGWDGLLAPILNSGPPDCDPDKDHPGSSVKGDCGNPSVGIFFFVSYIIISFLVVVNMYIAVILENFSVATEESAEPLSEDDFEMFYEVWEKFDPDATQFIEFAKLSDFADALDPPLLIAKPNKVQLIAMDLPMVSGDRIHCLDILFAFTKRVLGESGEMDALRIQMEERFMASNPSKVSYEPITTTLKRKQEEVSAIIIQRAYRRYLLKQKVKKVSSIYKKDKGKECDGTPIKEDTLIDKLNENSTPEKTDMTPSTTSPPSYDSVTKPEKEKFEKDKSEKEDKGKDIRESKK
Sequence of Cathepsin D (P07339 65-162 limits assumed): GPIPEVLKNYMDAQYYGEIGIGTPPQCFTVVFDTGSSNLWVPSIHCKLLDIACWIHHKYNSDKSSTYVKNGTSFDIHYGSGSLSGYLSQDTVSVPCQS
Sequence of Cathepsin D (P07339 169-412 limits assumed): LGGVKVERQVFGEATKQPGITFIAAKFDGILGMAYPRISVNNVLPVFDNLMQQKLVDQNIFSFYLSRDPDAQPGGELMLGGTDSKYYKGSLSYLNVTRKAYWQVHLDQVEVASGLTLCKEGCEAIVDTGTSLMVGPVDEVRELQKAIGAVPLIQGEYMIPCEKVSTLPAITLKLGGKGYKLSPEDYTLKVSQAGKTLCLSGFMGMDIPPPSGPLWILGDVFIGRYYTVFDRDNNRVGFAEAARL
Sequence of Beta-secretase 1 (P56817 whole entry): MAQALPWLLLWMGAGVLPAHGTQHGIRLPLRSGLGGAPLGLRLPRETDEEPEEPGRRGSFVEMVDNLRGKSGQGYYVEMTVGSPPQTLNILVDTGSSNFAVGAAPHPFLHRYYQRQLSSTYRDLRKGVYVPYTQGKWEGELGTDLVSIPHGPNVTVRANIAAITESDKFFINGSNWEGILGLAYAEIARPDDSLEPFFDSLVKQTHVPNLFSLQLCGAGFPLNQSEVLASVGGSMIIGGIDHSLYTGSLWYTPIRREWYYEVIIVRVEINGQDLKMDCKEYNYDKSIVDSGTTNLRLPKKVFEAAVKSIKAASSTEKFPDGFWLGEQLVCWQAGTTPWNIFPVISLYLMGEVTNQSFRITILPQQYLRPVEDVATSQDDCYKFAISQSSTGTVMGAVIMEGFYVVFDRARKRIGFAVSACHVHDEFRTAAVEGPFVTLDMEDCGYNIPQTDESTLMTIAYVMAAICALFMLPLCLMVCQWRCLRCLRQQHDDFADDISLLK

On to `CCOC[C@@H](CC(C)C)NC(=O)[C@@H]1CNC[C@H](C(=O)N(c2ccc(C(C)C)cn2)C2CC2)[C@@H]1O.O=C(O)CCC(=O)O`, for which the Activity in data set [1] amounted to 42 mmHg; in data set [2], 33 mmHg; in data set [3], 66 mmHg; in data set [4] it was 63 mmHg; in data set [11], 52 mmHg. The half-life (commonly the time in which the quantity being followed falls by half) in [5] was 6.8 h. Moreover, the bioavailability (as a rule, dose-corrected exposure relative to a reference, in per cent) in data set [6] came out at 61%. In addition, the AUC/dose in [7] was 552 nM·h/mg/kg. In addition, in data set [8], the clearance (as a rule, the rate of elimination divided by the concentration) was 40 mL/min/kg. In [9], the Vd was found to be 4 L/kg. The compound also showed a Cmax/dose in data set [10] of 136 nM/mg/kg.

On to `CCOC[C@@H](CC(C)C)NC(=O)[C@@H]1CNC[C@H](C(=O)N(c2ccc(C(C)C)cn2)C2CC2)[C@@H]1O`, for which the IC50 in data set [12], in data set [13], in [15], in data set [16], in data set [18] and in [19] was above 30 µM in each case. Besides, the IC50 in data set [20], in data set [22], in [23], in data set [24] and in data set [27] was above 30 µM each time. Also, the Activity result in data set [14] and in data set [17] was “Non-toxic” throughout. For the same compound, the logD (as a rule, the decadic logarithm of the distribution of all forms, ionised or not, between an organic phase and buffer at a given pH) in data set [21] worked out at 0.93. Also, the solubility (in general, how much of the substance goes into solution per volume) in data set [25] is above 10000 µg/mL. The same compound registered a Stability in data set [26] of 3 days.
